# Source: patent publication US20230212174A1, “PYRROLO[2,1-F][1,2,4]TRIAZINE DERIVATIVE AND USE THEREOF” (Tencent Technology (Shenzhen) Company Limited, priority 2021, published 2023)
# Biological target: T1, TTK (Homo sapiens, UniProt P33981)
# T1 sequence (P33981 1-857): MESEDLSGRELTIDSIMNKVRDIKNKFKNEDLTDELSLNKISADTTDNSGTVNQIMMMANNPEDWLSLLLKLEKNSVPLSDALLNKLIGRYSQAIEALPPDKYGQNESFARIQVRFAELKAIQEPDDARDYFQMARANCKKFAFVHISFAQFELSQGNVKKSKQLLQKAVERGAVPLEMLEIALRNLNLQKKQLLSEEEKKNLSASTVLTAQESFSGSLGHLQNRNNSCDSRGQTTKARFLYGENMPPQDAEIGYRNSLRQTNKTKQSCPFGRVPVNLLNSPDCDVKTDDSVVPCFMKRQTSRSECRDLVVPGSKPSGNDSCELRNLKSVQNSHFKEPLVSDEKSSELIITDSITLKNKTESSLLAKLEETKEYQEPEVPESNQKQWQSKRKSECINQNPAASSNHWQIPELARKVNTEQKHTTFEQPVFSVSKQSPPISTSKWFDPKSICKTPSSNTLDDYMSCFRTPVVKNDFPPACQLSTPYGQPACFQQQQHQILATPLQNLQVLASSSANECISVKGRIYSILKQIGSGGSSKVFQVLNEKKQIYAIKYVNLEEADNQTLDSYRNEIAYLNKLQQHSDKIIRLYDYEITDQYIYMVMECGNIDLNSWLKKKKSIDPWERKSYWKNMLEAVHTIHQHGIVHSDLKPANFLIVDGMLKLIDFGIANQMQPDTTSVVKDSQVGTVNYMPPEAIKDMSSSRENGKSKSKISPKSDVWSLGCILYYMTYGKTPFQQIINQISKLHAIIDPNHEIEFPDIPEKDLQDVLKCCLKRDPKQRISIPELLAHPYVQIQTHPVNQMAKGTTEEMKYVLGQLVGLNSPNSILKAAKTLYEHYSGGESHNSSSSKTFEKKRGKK
# Assay: TTK inhibitory activity (kinase reaction, Fluorescein-PolyGT substrate, antibody/EDTA stop, Envision read)
# Type: biochemical
# Conditions: 0.5 nM TTK, 7 uM ATP, 0.2 uM Fluorescein-PolyGT, 28° C., 30 min
# Experimental: The experiment aims to detect the inhibitory activity of the compound of the present disclosure on TTK in vitro.
# The TTK kinase reaction system was 10 μL, including 0.5 nM TTK, test compound over a concentration gradient, 10 mM MgCl2, 2 mM DTT, 7 uM ATP, 0.2 uM Fluorescein-PolyGT (Fluorescein-Poly Glu:Tyr (4:1)), 0.01% Triton X-100, 0.01% BSA, and 50 mM HEPES pH 7.5. The enzyme and the test compound of the present disclosure were added into a 384-well plate, and then a substrate and ATP were added. Then the system was incubated at a constant temperature of 28° C. 30 min after the reaction, 10 μL of a mixed solution of a corresponding antibody and EDTA was added to terminate the reaction, and incubated for 60 min at a constant temperature of 28° C. The data was read on Envision instrument. A curve was plotted with the Log concentration of the inhibitor as the X axis and the inhibition rate as the Y axis, and IC50 was calculated by Y=Bottom+(Top-Bottom)/(1+(IC50/X)^HillSlope).
row,IC50 [nM],Compound
1,4,CCOc1cc(-c2nncn2C)ccc1Nc1nc(NC2CCOCC2)c2cccn2n1 [Compound 4]
2,8.7,CCOc1cc(-c2nncn2C)ccc1Nc1ncc2ccc(C3=CCCC3)n2n1 [Compound 12]
3,8.9,CCOc1cc(-c2nncn2C)ccc1Nc1nc(NC2CCCC2)c2cccn2n1 [Compound 3]
4,2.1,CCOc1cc(-c2nncn2C)ccc1Nc1ncc2ccc(-c3cnn(C)c3)n2n1 [Compound 18]
5,4.2,CCOc1cc(-c2nncn2C)ccc1Nc1ncc2ccc(C3CCCCC3)n2n1 [Compound 15]
6,6.3,CCOc1cc(-c2nncn2C)ccc1Nc1ncc2ccc(C3CCOCC3)n2n1 [Compound 17]
7,27,CCOc1cc(-c2nncn2C)ccc1Nc1nc(NCC(C)(C)C)c2cccn2n1 [Compound 1]
8,7.1,CCOc1cc(-c2nncn2C)ccc1Nc1ncc2ccc(C3CCCC3)n2n1 [Compound 13]
9,5.5,CCOc1cc(-c2nncn2C)ccc1Nc1nc(NC2CCCCC2)c2c(Cl)ccn2n1 [Compound 10]
